# Where two headings read alike, the source gives them in different places.
# Tests used:
# [1] = test system: recombinant P. berghei GST; test: GST inhibition assay (CDNB); format: biochemical, Plasmodium berghei; details: 6-point 1–50 µM
# Summary of the method: (§1)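 Recombinant GST (0.35 mg/mL) with 1 mM CDNB in 100 mM HEPES was preincubated with inhibitor (six concentrations, 1–50 µM; 0.5% DMSO). After 15 min, 1 mM GSH started the reaction, and A340 was followed for 1 h. Slopes were converted to µmol/min using ε340 = 9.6 mM^–1 cm^–1.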
# [2] = test system: P. falciparum oocyst formation in Anopheles stephensi mosquitoes; test: P. falciparum oocyst inhibition assay (SMFA); format: in vivo, Plasmodium falciparum; details: for Median (oocysts) / Median I % / Prevalence % / Prevalence I %: pooled from two representative experiments
# Method: As previously described, P. falciparum infections were performed using SMFA with NF54 gametocyte cultures diluted to 0.3% stage V gametocytemia ([62]). Infected blood (O+ human 45% hematocrit in serum) was offered to mosquitoes for 30 minutes, and engorged mosquitoes were maintained on a 10% corn syrup solution supplemented by four concentrations of CB compounds (1, 2.5, 5, and 10 µM) at […] ([63]), with DMSO serving as a control. Eight days post-infection, mosquito midguts were dissected and stained with 0.2% mercurochrome for 30 minutes, and oocysts were quantified under a light microscope ([63]).
# [3] = test system: primary primate hepatocytes; test: hepatocyte toxicity in the P. cynomolgi liver-stage assay; format: cell-based
# [4] = test system: P. cynomolgi hypnozoites and hepatic schizonts; test: P. cynomolgi liver-stage inhibition assay; format: cell-based, Plasmodium cynomolgi; details: Plasmodium cynomolgi
# Summary of the method: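 Primary primate hepatocytes were infected with P. cynomolgi B strain sporozoites and treated with 8-point threefold dilutions (100 µM to 5 nM) for 4 days, either prophylactically from sporozoite addition or radical-cure from day 4 post-inoculation. Hypnozoites and schizonts counted by high-content imaging and normalized to DMSO; IC50 from four-parameter logistic fit.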
# in vitro = details: human
# Method: HepG2 cell viability was assessed using the Cell Proliferation kit with trypan blue exclusion. […] After incubation, a 1.5-mg/mL Cell Proliferation kit solution diluted in complete MEM medium was added to each well, followed by 1-hour dark incubation at 25°C. After aspiration of media and inhibitors, the plates were dried in a hood for 15 minutes, and acidified isopropyl alcohol was added to dissolve formazan dye crystals. The plates were then rotated for 15–30 minutes, and absorbance was determined using a Perkin Elmer Ensight plate reader.
# [5] = biological target: T1, recombinant P. falciparum GST (Plasmodium falciparum, UniProt Q8ILQ7); test: GST inhibition assay (CDNB); format: biochemical; details: 6-point 1–50 µM
# T1 construct: The open reading frames encoding PfGST, PbGST, and hGST were gene-synthesized; TEV cleavage site (C); Avitag (C); purchased InterRayBio, LLC; host or cells: E. coli BL21 (DE3)
# T1 sequence (Q8ILQ7 1-211): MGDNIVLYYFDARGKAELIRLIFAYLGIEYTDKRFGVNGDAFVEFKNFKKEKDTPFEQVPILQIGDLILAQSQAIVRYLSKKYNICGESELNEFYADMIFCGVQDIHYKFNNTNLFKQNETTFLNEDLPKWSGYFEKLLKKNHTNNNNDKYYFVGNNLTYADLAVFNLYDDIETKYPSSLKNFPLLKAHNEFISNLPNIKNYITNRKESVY
# Summary of the method: as §1
# human GST = biological target: T2, human GST (Homo sapiens, UniProt P08263); test: GST inhibition assay (CDNB); format: biochemical; details: 6-point 1–50 µM
# T2 construct: The open reading frames encoding PfGST, PbGST, and hGST were gene-synthesized; TEV cleavage site (C); Avitag (C); purchased InterRayBio, LLC; host or cells: E. coli BL21 (DE3)
# T2 sequence (P08263 1-222): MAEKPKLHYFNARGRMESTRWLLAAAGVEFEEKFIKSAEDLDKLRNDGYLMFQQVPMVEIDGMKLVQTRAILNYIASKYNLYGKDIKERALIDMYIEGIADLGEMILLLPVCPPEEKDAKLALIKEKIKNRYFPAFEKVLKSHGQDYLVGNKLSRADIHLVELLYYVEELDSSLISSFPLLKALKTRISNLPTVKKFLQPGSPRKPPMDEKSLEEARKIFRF
# Summary of the method: as §1
structure (smiles),measurement,setting,value
O=C(N/N=C/c1c(O)ccc2ccccc12)c1cc([N+](=O)[O-])cc([N+](=O)[O-])c1 [CB-61],GST inhibition,[1],did not inhibit
same,Median oocyst #,[2]; 1 μM compound,1
same,Mean oocyst # excluding zeros (Range),"[2]; 1 μM compound, P. falciparum midgut infection in An. stephensi mosquitoes",30 (0-109)
same,Prevalence,"[2]; 1 μM compound, infection prevalence in mosquitoes",60
same,Median (oocysts),[2]; 1 µM,1
same,Median I %,[2]; 1 µM,83%
same,Prevalence %,[2]; 1 µM,59%
same,Prevalence I %,[2]; 1 µM,31%
same,Median oocyst #,[2]; 2.5 μM compound,1
same,Mean oocyst # excluding zeros (Range),"[2]; 2.5 μM compound, P. falciparum midgut infection in An. stephensi mosquitoes",20 (0-65)
same,Prevalence,"[2]; 2.5 μM compound, infection prevalence in mosquitoes",55
same,Median (oocysts),[2]; 2.5 µM,1
same,Median I %,[2]; 2.5 µM,83%
same,Prevalence %,[2]; 2.5 µM,55%
same,Prevalence I %,[2]; 2.5 µM,36%
same,% inhibition (median),"[2]; 2.5 μM, single experiments",62%
same,Median oocyst #,[2]; 5 μM compound,1
same,Mean oocyst # excluding zeros (Range),"[2]; 5 μM compound, P. falciparum midgut infection in An. stephensi mosquitoes",20 (0-68)
same,Prevalence,"[2]; 5 μM compound, infection prevalence in mosquitoes",55
same,Median (oocysts),[2]; 5 µM,1
same,Median I %,[2]; 5 µM,83%
same,Prevalence %,[2]; 5 µM,55%
same,Prevalence I %,[2]; 5 µM,36%
same,% inhibition (median),"[2]; 5 μM, single experiments",58%
same,Mean oocyst # excluding zeros (Range),"[2]; 7.5 μM, single experiments",15 (0-53)
same,Median oocyst #,"[2]; 7.5 μM, single experiments",2.5
same,Prevalence,"[2]; 7.5 μM, single experiments",75
same,Median oocyst #,[2]; 10 μM compound,0
same,Mean oocyst # excluding zeros (Range),"[2]; 10 μM compound, P. falciparum midgut infection in An. stephensi mosquitoes",7 (0-30)
same,Prevalence,"[2]; 10 μM compound, infection prevalence in mosquitoes",46
same,Median (oocysts),[2]; 10 µM,0
same,Median I %,[2]; 10 µM,100%
same,Prevalence %,[2]; 10 µM,46%
same,Prevalence I %,[2]; 10 µM,47%
same,Mean oocyst # excluding zeros (Range),"[2]; 25 μM, single experiments",1 (0-2)
same,Median oocyst #,"[2]; 25 μM, single experiments",0
same,Prevalence,"[2]; 25 μM, single experiments",18
same,Mean oocyst # excluding zeros (Range),"[2]; 50 μM, single experiments",1 (0-2)
same,Median oocyst #,"[2]; 50 μM, single experiments",0
same,Prevalence,"[2]; 50 μM, single experiments",15
same,oocyst formation inhibition,"[2]; 1 to 10 µM, midguts dissected 8 days after feeding",inhibited midgut oocyst formation in a dose-dependent manner
same,inhibition at 2.5 µM,"[2]; read-out: % inhibition (mean), 2.5 μM compound, oocyst number vs DMSO control",23%
same,inhibition at 5 µM,"[2]; read-out: % inhibition (mean), 5 μM compound, oocyst number vs DMSO control",23%
same,inhibition at 7.5 µM,"[2]; read-out: % inhibition (mean), 7.5 μM, single experiments",29%
same,inhibition at 10 µM,"[2]; read-out: % inhibition (mean), 10 μM compound, oocyst number vs DMSO control",72%
same,inhibition at 25 µM,"[2]; read-out: % inhibition (mean), 25 μM, single experiments",48%
same,inhibition at 50 µM,"[2]; read-out: % inhibition (mean), 50 μM, single experiments",49%
same,inhibition at 1 µM,"[2]; read-out: % inhibition (median), 1 μM compound, oocyst number vs DMSO control",83%
same,inhibition at 2.5 µM,"[2]; read-out: % inhibition (median), 2.5 μM compound, oocyst number vs DMSO control",83%
same,inhibition at 5 µM,"[2]; read-out: % inhibition (median), 5 μM compound, oocyst number vs DMSO control",83%
same,inhibition at 7.5 µM,"[2]; read-out: % inhibition (median), 7.5 μM, single experiments",79%
same,inhibition at 10 µM,"[2]; read-out: % inhibition (median), 10 μM compound, oocyst number vs DMSO control",100%
same,inhibition at 25 µM,"[2]; read-out: % inhibition (median), 25 μM, single experiments",100%
same,inhibition at 50 µM,"[2]; read-out: % inhibition (median), 50 μM, single experiments",100%
same,inhibition at 1 µM,"[2]; read-out: % inhibition (prevalence), 1 μM compound, vs DMSO control",31%
same,inhibition at 2.5 µM,"[2]; read-out: % inhibition (prevalence), 2.5 μM compound, vs DMSO control",36%
same,inhibition at 5 µM,"[2]; read-out: % inhibition (prevalence), 5 μM compound, vs DMSO control",36%
same,inhibition at 7.5 µM,"[2]; read-out: % inhibition (prevalence), 7.5 μM, single experiments",21%
same,inhibition at 10 µM,"[2]; read-out: % inhibition (prevalence), 10 μM compound, vs DMSO control",47%
same,inhibition at 25 µM,"[2]; read-out: % inhibition (prevalence), 25 μM, single experiments",74%
same,inhibition at 50 µM,"[2]; read-out: % inhibition (prevalence), 50 μM, single experiments",78%
same,Toxicity,[3],>10 µM
same,IC50,[4]; read-out: Hypnozoite IC50,> 10 µM
same,IC50,[4]; read-out: Schizont IC50,> 10 µM
same,IC50,[4]; read-out: Total parasite IC50,> 10 µM
same,IC50 at 48 h,in vitro,> 20 µM
same,GST inhibition,[5],did not inhibit
same,GST inhibition,human GST,did not inhibit

# From publication PMC11620517, “Novel hydrazone compounds with broad-spectrum antiplasmodial activity and synergistic interactions with antimalarial drugs” (Antimicrobial Agents and Chemotherapy, 2024)
